Measured values from ChEMBL document CHEMBL4177669 (Bioorg Med Chem Lett, 2017).
Converted amounts (≈) assume the structure as drawn. Blank lines part the entries; values can stand above or below the compound they belong to.

How the values were obtained:
[1] = Half life in CD-1 mouse at 3 mg/kg, iv; type: ADME, organism-based; conditions: in vivo
[2] = Clearance in CD-1 mouse at 3 mg/kg, iv; type: ADME, organism-based; conditions: in vivo
[3] = AUC in CD-1 mouse at 3 mg/kg, iv; type: ADME, organism-based; conditions: in vivo
[4] = Drug metabolism in rat hepatocytes assessed as acyl glucoronidation at 10 […] after 30 to 120 mins by LC-MS analysis; type: ADME, cell-based, Hepatocyte
[5] = Drug metabolism in human hepatocytes assessed as acyl glucoronidation at 10 […] after 30 to 120 mins by LC-MS analysis; type: ADME, cell-based, Hepatocyte
[6] = Drug metabolism in rat liver microsomes assessed as N-dealkylation; type: ADME, microsome
[7] = Drug metabolism in rat hepatocytes assessed as oxidation
[8] = Drug metabolism in rat hepatocytes assessed as hydrolysis
[9] = Thermodynamic solubility of the compound; type: physicochemical; conditions: read-out: Therm_solubility
[10] = Half life in CD-1 mouse at 1 mg/kg, iv; type: ADME, organism-based; conditions: in vivo
[11] = Clearance in CD-1 mouse at 1 mg/kg, iv; type: ADME, organism-based; conditions: in vivo
[12] = Volume of distribution at steady state in CD-1 mouse at 1 mg/kg, iv; type: ADME, organism-based; conditions: in vivo, read-out: Vdss
[13] = AUC in CD-1 mouse at 1 mg/kg, iv; type: ADME, organism-based; conditions: in vivo
[14] = Half life in CD-1 mouse at 10 mg/kg, po; type: ADME, organism-based; conditions: in vivo
[15] = Cmax in CD-1 mouse at 10 mg/kg, po; type: ADME, organism-based; set-up: dose 10 mg/kg, route oral; conditions: in vivo
[16] = AUC in CD-1 mouse at 10 mg/kg, po; type: ADME, organism-based; conditions: in vivo
[17] = Oral bioavailability in CD-1 mouse at 10 mg/kg; type: ADME, organism-based; conditions: in vivo
[18] = Half life in Wistar rat at 3 mg/kg, iv; type: ADME, organism-based; conditions: in vivo
[19] = Volume of distribution at steady state in Wistar rat at 3 mg/kg, iv; type: ADME, organism-based; conditions: in vivo, read-out: Vdss
[20] = Clearance in Wistar rat at 3 mg/kg, iv; type: ADME, organism-based; conditions: in vivo
[21] = AUC in Wistar rat at 3 mg/kg, iv; type: ADME, organism-based; conditions: in vivo
[22] = Half life in Wistar rat at 10 mg/kg, po; type: ADME, organism-based; conditions: in vivo
[23] = Cmax in Wistar rat at 10 mg/kg, po; type: ADME, organism-based; set-up: dose 10 mg/kg, route oral; conditions: in vivo
[24] = AUC in Wistar rat at 10 mg/kg, po; type: ADME, organism-based; conditions: in vivo
[25] = Oral bioavailability in Wistar rat at 10 mg/kg; type: ADME, organism-based; conditions: in vivo
[26] = Half life in cynomolgus monkey at 3 mg/kg, iv; type: ADME, organism-based, Macaca fascicularis; conditions: in vivo
[27] = Clearance in cynomolgus monkey at 3 mg/kg, iv; type: ADME, organism-based, Macaca fascicularis; conditions: in vivo
[28] = Volume of distribution at steady state in cynomolgus monkey at 3 mg/kg, iv; type: ADME, organism-based, Macaca fascicularis; conditions: in vivo, read-out: Vdss
[29] = AUC in cynomolgus monkey at 3 mg/kg, iv; type: ADME, organism-based, Macaca fascicularis; conditions: in vivo
[30] = Half life in cynomolgus monkey at 10 mg/kg, po; type: ADME, organism-based, Macaca fascicularis; conditions: in vivo
[31] = Cmax in cynomolgus monkey at 10 mg/kg, po; type: ADME, organism-based, Macaca fascicularis; set-up: dose 10 mg/kg, route oral; conditions: in vivo
[32] = AUC in cynomolgus monkey at 10 mg/kg, po; type: ADME, organism-based, Macaca fascicularis; conditions: in vivo
[33] = Oral bioavailability in cynomolgus monkey at 10 mg/kg; type: ADME, organism-based, Macaca fascicularis; conditions: in vivo

Structure (SMILES): C[C@@H](CCCOc1ccccc1CN(C)C(=O)c1ccc(-c2ccco2)cc1)CC(=O)O
- half-life [1]: 2 h
- clearance [2]: 1.3 mL/min/kg
- AUC [3]: 30800 ng·h/mL
- Drug metabolism [4]: Metabolite_Detected
- Drug metabolism [5]: Metabolite_Detected

Structure (SMILES): CN(Cc1ccccc1OCCCCCC(=O)O)C(=O)c1ccc(-c2ccco2)cc1
- half-life [1]: 1.7 h
- clearance [2]: 44 mL/min/kg
- AUC [3]: 1100 ng·h/mL
- Drug metabolism [4]: Metabolite_Detected
- Drug metabolism [5]: Metabolite_Detected

Structure (SMILES): C/C(=C\COc1ccccc1CN(C)C(=O)c1ccc(-c2ccco2)cc1)CCC(=O)O
- half-life [1]: 2.3 h
- clearance [2]: 15 mL/min/kg
- AUC [3]: 3300 ng·h/mL
- solubility thermodynamic [9]: 190 µM (≈ 82.4 µg/mL)
- half-life [10]: 5.8 h
- clearance [11]: 8.4 mL/min/kg
- Vd [12]: 2.6 L/kg
- AUC [13]: 1980 ng·h/mL
- half-life [14]: 4.3 h
- Cmax [15]: 11100 ng/mL
- AUC [16]: 16600 ng·h/mL
- bioavailability [17]: 84%
- half-life [18]: 4.5 h
- Vd [19]: 0.9 L/kg
- clearance [20]: 7.2 mL/min/kg
- AUC [21]: 4650 ng·h/mL
- half-life [22]: 2.5 h
- Cmax [23]: 3800 ng/mL
- AUC [24]: 12500 ng·h/mL
- bioavailability [25]: 82%
- half-life [26]: 1.8 h
- clearance [27]: 8 mL/min/kg
- Vd [28]: 1.3 L/kg
- AUC [29]: 6200 ng·h/mL
- half-life [30]: 1.1 h
- Cmax [31]: 4190 ng/mL
- AUC [32]: 6050 ng·h/mL
- bioavailability [33]: 29%
- Drug metabolism [4]: Metabolite_Detected
- Drug metabolism [5]: Metabolite_Detected

Structure (SMILES): C[C@H](CCCOc1ccccc1CN(C)C(=O)c1ccc(-c2ccco2)cc1)CC(=O)O
- half-life [1]: 3.9 h
- clearance [2]: 0.3 mL/min/kg
- AUC [3]: 77700 ng·h/mL
- Drug metabolism [4]: Metabolite_Detected
- Drug metabolism [5]: Metabolite_Detected

Structure (SMILES): CN(Cc1ccccc1OCCCCC(C)(C)C(=O)O)C(=O)c1ccc(-c2ccco2)cc1
- half-life [1]: 4.6 h
- clearance [2]: 1.3 mL/min/kg
- AUC [3]: 48400 ng·h/mL
- Drug metabolism [4]: Metabolite_Detected
- Drug metabolism [5]: Metabolite_Detected

Structure (SMILES): CN(Cc1ccccc1OCCC[C@@H]1C[C@@H]1C(=O)O)C(=O)c1ccc(-c2ccco2)cc1 (racemic)
- half-life [1]: 2.7 h
- clearance [2]: 1.7 mL/min/kg
- AUC [3]: 30100 ng·h/mL
- Drug metabolism [4]: Metabolite_Detected
- Drug metabolism [5]: Metabolite_Detected

Structure (SMILES): C/C(=C\CCCOc1ccccc1CN(C)C(=O)c1ccc(-c2ccco2)cc1)C(=O)O
- half-life [1]: 1.2 h
- clearance [2]: 4 mL/min/kg
- AUC [3]: 1300 ng·h/mL
- Drug metabolism [4]: Metabolite_Detected
- Drug metabolism [5]: Metabolite_Detected

Other lines, results leading:

- half-life [1]: 1.6 h
- clearance [2]: 11 mL/min/kg
- AUC [3]: 4700 ng·h/mL
- Drug metabolism [4]: Metabolite_Detected
- Drug metabolism [5]: Metabolite_Detected
Structure (SMILES): C/C(=C\C(=O)O)CCCOc1ccccc1CN(C)C(=O)c1ccc(-c2ccco2)cc1

- Drug metabolism [6]: Metabolite_Detected
- Drug metabolism [7]: Metabolite_Detected
- Drug metabolism [8]: Metabolite_Detected
Structure (SMILES): O=C(O)CCCCCOc1ccccc1CN(C(=O)c1ccc(-c2ccco2)cc1)C1CC1

- half-life [1]: 1.7 h
- clearance [2]: 4 mL/min/kg
- AUC [3]: 11800 ng·h/mL
- Drug metabolism [4]: Metabolite_Detected
- Drug metabolism [5]: Metabolite_Detected
Structure (SMILES): CC(CCOc1ccccc1CN(C)C(=O)c1ccc(-c2ccco2)cc1)CCC(=O)O (stereo not drawn)

- half-life [1]: 3.5 h
- clearance [2]: 0.6 mL/min/kg
- AUC [3]: 40500 ng·h/mL
- Drug metabolism [4]: Metabolite_Detected
- Drug metabolism [5]: Metabolite_Detected
Structure (SMILES): CN(Cc1ccccc1OCCC[C@@H]1C[C@H]1C(=O)O)C(=O)c1ccc(-c2ccco2)cc1 (racemic)

- half-life [1]: 1.9 h
- clearance [2]: 67 mL/min/kg
- AUC [3]: 750 ng·h/mL
- Drug metabolism [4]: Metabolite_Detected
- Drug metabolism [5]: Metabolite_Detected
Structure (SMILES): CN(Cc1ccccc1OCCC/C=C/C(=O)O)C(=O)c1ccc(-c2ccco2)cc1

- half-life [1]: 2.8 h
- clearance [2]: 3 mL/min/kg
- AUC [3]: 11400 ng·h/mL
- Drug metabolism [4]: Metabolite_Detected
- Drug metabolism [5]: Metabolite_Detected
Structure (SMILES): CC(CCCCOc1ccccc1CN(C)C(=O)c1ccc(-c2ccco2)cc1)C(=O)O (stereo not drawn)
